According to patent US11447535B2, “GLP-1 analogues” (Sun Pharmaceutical Industries Limited, priority 2018, dated 2022):
Marks after values point to notes of the source that are not given here.

Legend:
[1] = system: db/db mice (diabetic mouse model); experiment: Separate db/db diabetic mouse study, q2d*15 up to day 28, recovery period day 29 to day 45; assay type: in vivo
Experimental: The study was performed in similar manner as above on diabetic mouse model. The animals were divided into three treatment groups—a diabetic control group, a test group and a semaglutide treatment group. The representative compounds of the present disclosure, Compound 1, Compound 13 and Compound 16, were injected subcutaneously at 3.04 or 6.078 nM dose (every alternate day up to day 28 (q2d*15). The same dosage regimen was administered in semaglutide treatment group. Measurements of blood glucose levels and body weight were done daily. % HbA1c, Insulin was measured on Day 0, day 14 and day 29. Cumulative food intake and body weight change was calculated on day 14 and 29. % HbA1c, Insulin data was analyzed by two way ANOVA followed by Bonferroni's posttests using PRISM (Graph Pad version 5.03). Whereas Blood Glucose AUC, Body weight change and Cumulative food intake data was analyzed by one way ANOVA followed by Bonferroni's posttests using PRISM (Graph Pad version 5.03). From day 29 to day 45, animals were kept on recovery period during which no drug treatment was given. Blood Glucose and Body weight was measured during this period. On day 45, Body weight Changes, % HbA1c, Insulin was measured.

[2] = Food intake and body weight recorded in the rat OGTT study; assay type: in vivo, rats; settings: for Body Weight Change (%) Mean / Food Consumption (g) Mean: 1 mg/Kg
Experimental: (§1) Animals were divided into three groups—a normal control group, a test group and a third semaglutide group, with 4 animals in each group. The animals were fasted for 12 hours before initiation of OGTT. To the test group animals, the Compound 1 was injected subcutaneously at 1 mg/kg dose. To the semaglutide group, a dose of 1 mg/kg was injected subcutaneously. After 22 hrs, 166 hrs and 334 hrs of subcutaneous injection of test drug or semaglutide, blood glucose was measured with blood glucose meter (time 0 measurements). All the animals were then given 2 g/kg of glucose solution orally. Blood glucose was measured at 20, 40, 60, 90 and 120 minutes following glucose challenge. Body weight and food intake was recorded. Blood glucose data was analyzed using Two way ANOVA followed by Bonferroni posttests using PRISM (Graph Pad version 5.03). Data of Blood glucose AUC0-120 min, was analyzed using t test.
as §1, with “animals,” for “animals, the”, “1, Compound 13 and Compound 16 were” for “1 was”, “compound” for “drug”

[3] = system: db/db type 2 diabetic mice; experiment: Reduction of HbA1c in db/db type 2 diabetic mice after chronic treatment (27 day study); assay type: in vivo; settings: db/db mice
Experimental: This study was done in diabetic mouse model. The animals were divided into three treatment groups—a diabetic control group, a test group and a semaglutide treatment group. Compound 1 of the present disclosure was injected subcutaneously at 0.3 mg/kg dose once a day for 3 days (qd*3) followed by 0.1 mg/kg dose every alternate day for 7 doses (q2d*7) followed by 0.1 mg/kg dose once every four days for two dose cycles (q4d*2). The same dosage regimen was administered in semaglutide treatment group. Measurements of blood glucose levels and body weight were done daily. % HbA1c was measured on Day 0, day 7, day 14 and day 27 by column chromatography. Cumulative food intake was calculated on day 27. % HbA1C data was analyzed by two way ANOVA followed by Bonferroni's posttests using PRISM (Graph Pad version 5.03).

SD rats = experiment: Oral glucose tolerance test (OGTT) in rats; single injection; 1 mg/kg; assay type: in vivo; settings: for Blood Glucose AUC (mg/dL*min) Mean: 1 mg/Kg
Experimental: as §1
as §1, with “animals,” for “animals, the”, “1, Compound 13 and Compound 16 were” for “1 was”, “compound” for “drug”

[4] = recovery period, earlier dose 12.155 nM
[5] = recovery study, day 45, earlier dose 12.155 nM
[6] = rats, 1 mg/kg s.c. single injection, Day 2
[7] = rats, 1 mg/kg s.c. single injection, Day 4

Semaglutide [reference compound]
Blood Glucose AUC (Day 0-29) % Change Vs Control ([1]; 12.155 nM, q2d*15): −41.78% | Blood Glucose AUC (Day 0-29) (mg/dL*days) Mean ([1]; 12.155 nM, q2d*15): 9867.9*** mg/dL*days | Body Weight Change Day 29, % Change vs Day 0 Mean ([1]; 12.155 nM, q2d*15): 0.7% | Cumulative Food Intake (g) Day 0-29 Mean ([1]; 12.155 nM, q2d*15): 92.0 g | % HbA1C Mean ([1]; Day 0, 12.15 nM, q2d*15): 7.66% | Insulin (ng/mL) Mean ([1]; Day 0, 12.15 nM, q2d*15): 18.7 ng/mL | % HbA1C Mean ([1]; Day 14, 12.15 nM, q2d*15): 7.04% | Insulin (ng/mL) Mean ([1]; Day 14, 12.15 nM, q2d*15): 37.5 ng/mL | % HbA1C Mean ([1]; Day 29, 12.15 nM, q2d*15): 6.47 *** % | Insulin (ng/mL) Mean ([1]; Day 29, 12.15 nM, q2d*15): 48.1** ng/mL | Blood Glucose AUC (Day 30-37) % Change vs Control [1, 4]: −15.58% | Blood Glucose AUC (Day 30-37) (mg/dL*days) Mean [1, 4]: 3032.0 mg·days/dL | Blood Glucose AUC (Day 38-45) % Change vs Control [1, 4]: −5.16% | Blood Glucose AUC (Day 38-45) (mg/dL*days) Mean [1, 4]: 3415.7 mg·days/dL | % HbA1C Mean [1, 5]: 7.8% | Delta HbA1C vs. DC [1, 5]: −0.7 | Insulin (ng/mL) Mean [1, 5]: 19.7 ng/mL | Body Weight % Change vs Day 45 Mean ([1]; recovery study, earlier dose 12.155 nM): 9.5% | Body Weight Change (%) Mean ([2]; 48 h, Exp. 1): −6.5% | Food Consumption (g) Mean ([2]; 48 h, Exp. 1): 17.5 g | Body Weight Change (%) Mean ([2]; 48 h, Exp. 2): −8.7% | Food Consumption (g) Mean ([2]; 48 h, Exp. 2): 19.3 g | Body Weight Change (%) Mean ([2]; 154 h, Exp. 1): 4.5% | Food Consumption (g) Mean ([2]; 154 h, Exp. 1): 86.3 g | Body Weight Change (%) Mean ([2]; 154 h, Exp. 2): 0.2% | Food Consumption (g) Mean ([2]; 154 h, Exp. 2): 50.4 g | Body Weight Change (%) Mean ([2]; 324 h, Exp. 1): 11.8% | Food Consumption (g) Mean ([2]; 324 h, Exp. 1): 107.9 g | Body Weight Change (%) Mean ([2]; 324 h, Exp. 2): 3.8% | Food Consumption (g) Mean ([2]; 324 h, Exp. 2): 96.8 g | Body Weight (Day 2) % Change vs Baseline [2, 6]: −7.65% | Body Weight (g) (Day 2) Mean [2, 6]: 428.1 g | Body Weight (Day 4) % Change vs Baseline [2, 7]: −5.3% | Body Weight (g) (Day 4) Mean [2, 7]: 427.2 g | Food Consumption (g) (day 0 to day 2) Mean ([2]; rats, 1 mg/kg s.c. single injection, day 0 to day 2): 5.03*** g | Food Consumption (g) (day 0 to day 4) Mean ([2]; rats, 1 mg/kg s.c. single injection, day 0 to day 4): 55.73*** g | cumulative food intake vs diabetic control group ([3]; 0 to 27th day (FIG. 8)): statistically significant reduction in food intake | % HbA1c Mean ([3]; Day 0 (before treatment)): 5.05% | % HbA1c % Change vs DC ([3]; Day 27, vs Diabetic Control): −2.26% | % HbA1c Mean ([3]; Day 27, s.c. 0.3 mg/kg qd*3, 0.1 mg/kg q2d*7, 0.1 mg/kg q4d*2): 5.03*** % | % change in body weight ([3]; day 0 to day 27 (FIG. 9)): −8% | % Glucose Reduction (Blood Glucose AUC0-120 min) (SD rats; OGTT, 1 mg/Kg dose, after 24 hrs): 49.3% | Blood Glucose AUC (mg/dL*min) Mean (SD rats; OGTT, 22 hr, Exp. 1): 5458.0 mg·min/dL | Blood Glucose AUC (mg/dL*min) Mean (SD rats; OGTT, 22 hr, Exp. 2): 4258 mg·min/dL | Blood Glucose AUC (mg/dL*min) Mean (SD rats; OGTT, 168 hr, Exp. 1): 12785.0 mg·min/dL | Blood Glucose AUC (mg/dL*min) Mean (SD rats; OGTT, 168 hr, Exp. 2): 7410 mg·min/dL | Blood Glucose AUC (mg/dL*min) Mean (SD rats; OGTT, 336 hr, Exp. 1): 16223.0 mg·min/dL | Blood Glucose AUC (mg/dL*min) Mean (SD rats; OGTT, 336 hr, Exp. 2): 8023.0 mg·min/dL | reduction in blood glucose AUC (SD rats; after 168 hrs of injection, 1 mg/kg): about 25%
